Values after ≈ are worked out from the molar mass of the structure shown. Marks after values point to notes of the source that are not given here. Values belong to the molecule of their own block, whether it stands above or below them.
Tests used:
[1] = DPPH free radical scavenging activity; conditions: anti-DPPH radical activity, 30 min, 517 nm
Method: Spectrophotometry at 517 nm was used to measure the absorbance, which was then compared with the control. The DPPH suppressant effect was calculated using the formula below: […]

[2] = test system: Escherichia coli (25,922); assay: Broth microdilution, E. coli; format: cell-based
Description: (§1) The microdilution method was used to assess the antimicrobial activity of the PGEO against selected bacterial and fungal strains according to the method [49].

[3] = test system: Staphylococcus aureus (2592); assay: Broth microdilution, S. aureus; format: cell-based
Description: as §1

[4] = test system: methicillin-resistant S. aureus (MRSA); assay: Broth microdilution, MRSA; format: cell-based; conditions: Staphylococcus aureus, clinical strain
Description: as §1

[5] = test system: Klebsiella pneumonia (13,883); assay: Broth microdilution, K. pneumoniae; format: cell-based
Description: as §1

[6] = test system: Pseudomonas aeruginosa (9027); assay: Broth microdilution, P. aeruginosa; format: cell-based
Description: as §1

Proteus vulgaris (8427) = assay: Broth microdilution, P. vulgaris; format: cell-based
Description: as §1

[7] = test system: Candida albicans (ATCC 90028); assay: Broth microdilution, C. albicans; format: cell-based; conditions: ATCC90028
Description: as §1

Hep3B = assay: cells; format: cell-based; conditions: Homo sapiens, 24 h, MTS
Method: Human cervical (HeLa), breast (MCF-7), and liver (Hep3B) cancer cell lines were cultured in RPMI-1640 medium (Sigma-Norwich, Norfolk, UK). Then each kind of the tested cells was treated with 10% fetal bovine serum mixed with 1% penicillin/streptomycin antibiotics (BI, Ghaziabad, UP, India), and 1% L-glutamine (Sigma-Norwich, Norfolk, UK). The cancer cells were cultured at 37 °C in a humidified atmosphere with 5% CO2 and then planted in a 96-well plate at 2.6 × 10^4 cells/well. After 2 days, the EO with different concentrations (10, 30, 60, 120, and 500 µg/mL) was applied to the cells for 24 h. According to the manufacturer’s guidelines, cell viability was estimated by the CellTilter 96® Aqueous One Solution Cell Proliferation (MTS) method. In the end, 100 μL of media and 20 μL of MTS solution were added to each well, and the well plates were incubated at 37 °C for 2 h. The absorbance was measured at 490 nm.

lipase = molecular target: lipase; set-up: method as in earlier work; conditions: PGEO from Jordan; cited from earlier work
S. aureus = test system: S. aureus; set-up: method as in PMID 26221178; conditions: cited from earlier work
E. coli = test system: E. coli; set-up: method as in PMID 26221178; conditions: cited from earlier work
S. aureus species = test system: S. aureus species; set-up: method as in PMID 31284397; conditions: cited from earlier work

SMILES: CC1(C)S[C@@H]2[C@H](NC(=O)[C@H](N)c3ccccc3)C(=O)N2[C@H]1C(=O)O [Ampicillin]
- MIC [2]: 3.12 ± 0.56 µg/mL (≈ 8.93 µM)
- MIC [3]: 6.25 ± 0.2 µg/mL (≈ 17.9 µM)
- MIC [4]: 32 ± 0.64 µg/mL (≈ 91.6 µM)
- MIC [5]: 12.5 ± 0.05 µg/mL (≈ 35.8 µM)
- MIC [6]: 100 ± 1.01 µg/mL (≈ 286 µM)
- MIC (Proteus vulgaris (8427)): 3.25 ± 0.21 µg/mL (≈ 9.3 µM)

SMILES: OC(Cn1cncn1)(Cn1cncn1)c1ccc(F)cc1F [Fluconazole]
- MIC [7]: 3.12 ± 0.01 µg/mL (≈ 10.2 µM)

SMILES: COc1cccc2c1C(=O)c1c(O)c3c(c(O)c1C2=O)C[C@@](O)(C(=O)CO)C[C@@H]3O[C@H]1C[C@H](N)[C@H](O)[C@H](C)O1 [Doxorubicin]
- IC50 (Hep3B): 1.21 ± 1 µg/mL (≈ 2.23 µM)

SMILES: CCCCCCCCCCC[C@@H](C[C@@H]1OC(=O)[C@H]1CCCCCC)OC(=O)[C@H](CC(C)C)NC=O [Orlistat]
- anti-lipase IC50 (lipase): 0.114 ± 0.0 µg/mL

SMILES: CC(C)=CCCC(C)CCO (stereo not drawn) [citronellol]
- MIC S. aureus (S. aureus): 400 µg/mL (≈ 2560 µM)
- MIC E. coli (E. coli): 300 µg/mL (≈ 1920 µM)
- MIC S. aureus (S. aureus species): 30 µg/mL (≈ 192 µM)

Now from value to molecule:

- IC50 against DPPH [1]: 1.88 ± 0.45 ^a µg/mL
SMILES: Cc1c(C)c2c(c(C)c1O)CCC(C)(C(=O)O)O2 (stereo not drawn) [Trolox]

- MIC [5]: 0.06 ± 0.001 µg/mL (≈ 0.181 µM)
- MIC (Proteus vulgaris (8427)): 0.06 ± 0.001 µg/mL (≈ 0.181 µM)
SMILES: O=C(O)c1cn(C2CC2)c2cc(N3CCNCC3)c(F)cc2c1=O [Ciprofloxacin]
